Results reported in patent US7473688B2, “Indolobenzazepine HCV NS5B inhibitors” (Bristol-Myers Squibb Company, priority 2005, dated 2009).
Like-named read-outs stand apart in the source and are kept apart here.

What was measured:
HCV NS5B = molecular target: T1, HCV NS5B (Hepatitis C virus genotype 1b, UniProt Q9WMX2); test: HCV NS5B RdRp enzyme assay (preincubation protocol); assay type: biochemical
T1 construct: The protein was expressed with an 18 amino acid C-terminal truncation to enhance the solubility; made in house; host or cells: E. coli BL21 (DE3), pET21a
Procedure, shortened: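 Preincubation format: enzyme (14 nM, genotype 1b, 18-residue C-terminal truncation) meets diluted compound first; reaction started with bead-bound biotinylated dT12 primer, polyA template 0.2 nM and 0.29 μM 3H-UTP. Run 4 h, 30 °C in Hepes pH 7.5; scintillation proximity signal; IC50 fitted from seven inhibitor levels.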

HCV replicon = HCV replicon FRET assay; assay type: cell-based; conditions: Hepatitis C virus
Source text: FRET Assay Preparation. To perform the HCV FRET screening assay, 96-well cell culture plates were used. The FRET peptide (Anaspec, Inc.) (Taliani et al., Anal. Biochem. 1996, 240, 60-67) contains a fluorescence donor, EDANS, near one end of the peptide and an acceptor, DABCYL, near the other end. The fluorescence of the peptide is quenched by […] resonance energy transfer (RET) between the donor and the acceptor, but as the NS3 protease cleaves the peptide the products are released from RET quenching and the fluorescence of the donor becomes apparent. The assay reagent was made as follows: 5× cell Luciferase cell culture lysis reagent from Promega (#E153A) diluted to 1× with dH2O, NaCl added to 150 mM final, the FRET peptide diluted to 20 uM final from a 2 mM stock.
To prepare plates, HCV replicon cells, with or without a Renilla luciferase reporter gene, were trypsinized and placed into each well of a 96-well plate with titrated test compounds added in columns 3 through 12; columns 1 and 2 contained a control compound (HCV protease inhibitor), and the bottom row contained cells without compound. The plates were then placed in a CO2 incubator at 37° C.
Assays. Subsequent to addition of the test compounds described above (FRET Assay Preparation), at various times the plate was removed and Alamar blue solution (Trek Diagnostics, #00-100) was added per well as a measure of cellular toxicity. After reading in a Cytoflour 4000 instrument (PE Biosystems), plates were rinsed with PBS and then used for FRET assay by the addition of 30 ul of the FRET peptide assay reagent described above (FRET Assay Preparation) per well. The plate was then placed into the Cytoflour 4000 instrument which had been set to 340 excite/490 emission, automatic mode for 20 cycles and the plate read in a kinetic mode. Typically, the signal to noise using an endpoint analysis after the reads was at least three-fold. Alternatively, after Alamar blue reading, plates were rinsed with PBS, 50 ul of DMEM (high glucose) without phenol red was added and plates were then used for luciferase assay using the Promega Dual-Glo Luciferase Assay System.
Compound analysis was determined by quantification of the relative HCV replicon inhibition and the relative cytotoxicity values. To calculate cytoxicity values, the average Alamar Blue fluorescence signals from the control wells were set as 100% non-toxic. The individual signals in each of the compound test wells were then divided by the average control signal and multiplied by 100% to determine […]. To calculate the HCV replicon inhibition values, an average background value was obtained from the two wells containing the highest amount of HCV protease inhibitor at the end of the assay period. These numbers were similar to those obtained from naïve Huh-7 cells.
The background numbers were then subtracted from the average signal obtained from the control wells and this number was used as 100% activity. The individual signals in each of the compound test wells were then divided by the averaged control values after background subtraction and multiplied by 100% to determine percent activity. EC50 values for a protease inhibitor titration were calculated as the concentration which caused a 50% reduction in FRET or luciferase activity. The two numbers generated for the compound plate, percent cytoxicity and percent activity were used to determine compounds of interest for further analysis.

[1] = Table 1, FRET assay, read-out: EC50*

T1 sequence (Q9WMX2 2420-2992): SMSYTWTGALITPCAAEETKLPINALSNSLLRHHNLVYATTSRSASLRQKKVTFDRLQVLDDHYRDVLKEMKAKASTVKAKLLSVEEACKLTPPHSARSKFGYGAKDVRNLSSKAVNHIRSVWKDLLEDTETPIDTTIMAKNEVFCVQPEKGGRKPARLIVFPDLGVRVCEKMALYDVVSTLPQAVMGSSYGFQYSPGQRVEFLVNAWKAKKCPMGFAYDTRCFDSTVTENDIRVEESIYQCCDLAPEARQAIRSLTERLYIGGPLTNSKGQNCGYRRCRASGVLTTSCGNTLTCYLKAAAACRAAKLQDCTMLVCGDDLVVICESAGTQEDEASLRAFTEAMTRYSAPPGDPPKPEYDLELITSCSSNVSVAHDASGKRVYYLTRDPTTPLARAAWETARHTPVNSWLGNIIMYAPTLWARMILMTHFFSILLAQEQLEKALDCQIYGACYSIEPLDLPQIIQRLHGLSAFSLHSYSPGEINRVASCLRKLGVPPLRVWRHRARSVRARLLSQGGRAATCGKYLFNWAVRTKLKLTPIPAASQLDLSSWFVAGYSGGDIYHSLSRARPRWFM

## O=C(O)C1=Cc2ccccc2-c2c(C3CCCCC3)c3ccc(C(=O)NS(=O)(=O)N4CCOCC4)cc3n2C1
HCV NS5B; Table 1, read-out: IC50*
  IC50: 10 to 1000 nM
HCV replicon; [1]
  EC50: > 10000 nM

## COc1ccc(S(=O)(=O)NC(=O)c2ccc3c(C4CCCCC4)c4n(c3c2)CC(C(=O)N2CCOCC2)=Cc2ccccc2-4)cc1
HCV NS5B; Table 1, read-out: IC50*
  IC50: 10 to 1000 nM
HCV replicon; [1]
  EC50: 70 to 1000 nM

## O=C(NS(=O)(=O)N1CCOCC1)c1ccc2c(C3CCCCC3)c3n(c2c1)CC(C(=O)N1CCN(C(=O)CO)CC1)=Cc1ccccc1-3
HCV NS5B; Table 1, read-out: IC50*
  IC50: 10 to 1000 nM
HCV replicon; [1]
  EC50: 70 to 1000 nM

## COc1ccc2c(c1)C=C(C(=O)N1CCOCC1)Cn1c-2c(C2CCCCC2)c2ccc(C(=O)NS(=O)(=O)N3CCN(C)CC3)cc21
HCV NS5B; Table 1, read-out: IC50*
  IC50: 10 to 1000 nM
HCV replicon; [1]
  EC50: 70 to 1000 nM

## C[C@@H]1CN(C(=O)C2=Cc3ccccc3-c3c(C4CCCCC4)c4ccc(C(=O)NS(=O)(=O)N5CCN(C)CC5)cc4n3C2)C[C@H](C)O1
HCV NS5B; Table 1, read-out: IC50*
  IC50: 10 to 1000 nM
HCV replicon; [1]
  EC50: 70 to 1000 nM

## O=C(NCc1cnn[nH]1)c1ccc2c(C3CCCCC3)c3n(c2c1)CC(C(=O)N1CCOCC1)=Cc1ccccc1-3
HCV NS5B; Table 1, read-out: IC50*
  IC50: 10 to 1000 nM
HCV replicon; [1]
  EC50: 70 to 1000 nM

## C[C@@H]1CN(C(=O)C2=Cc3ccccc3-c3c(C4CCCCC4)c4ccc(C(=O)NCCN5CCOCC5)cc4n3C2)C[C@H](C)O1
HCV NS5B; Table 1, read-out: IC50*
  IC50: 10 to 1000 nM
HCV replicon; [1]
  EC50: 1000 to 10000 nM

## C[C@@H]1CN(C(=O)C2=Cc3ccccc3-c3c(C4CCCCC4)c4ccc(C(=O)NCCN(C)C)cc4n3C2)C[C@H](C)O1
HCV NS5B; Table 1, read-out: IC50*
  IC50: 10 to 1000 nM
HCV replicon; [1]
  EC50: 1000 to 10000 nM

## Cn1ncc(CNC(=O)c2ccc3c(C4CCCCC4)c4n(c3c2)CC(C(=O)N2CCOCC2)=Cc2ccccc2-4)n1
HCV NS5B; Table 1, read-out: IC50*
  IC50: 10 to 1000 nM
HCV replicon; [1]
  EC50: 1000 to 10000 nM

## O=C(O)c1ccc2c(C3CCCCC3)c3n(c2c1)CC(C(=O)Nn1cnnc1)Cc1ccccc1-3 (stereo not shown)
HCV NS5B; Table 1, read-out: IC50*
  IC50: 10 to 1000 nM
HCV replicon; [1]
  EC50: > 10000 nM

## COC(=O)c1ccc2c(C3CCCCC3)c3n(c2c1)CC(C(=O)N(C)CC1CCCN(C)C1)Cc1ccccc1-3 (stereo not shown)
HCV NS5B; Table 1, read-out: IC50*
  IC50: 10 to 1000 nM
HCV replicon; [1]
  EC50: 70 to 1000 nM

## CN1CCCC(CN(C)C(=O)C2Cc3ccccc3-c3c(C4CCCCC4)c4ccc(C(=O)O)cc4n3C2)C1 (stereo not shown)
HCV NS5B; Table 1, read-out: IC50*
  IC50: 10 to 1000 nM
HCV replicon; [1]
  EC50: 70 to 1000 nM

## CN1CCCC(CN(C)C(=O)C2Cc3ccccc3-c3c(C4CCCCC4)c4ccc(C(=O)NS(=O)(=O)N(C)C)cc4n3C2)C1 (stereo not shown)
HCV NS5B; Table 1, read-out: IC50*
  IC50: 10 to 1000 nM
HCV replicon; [1]
  EC50: < 20 nM

## COC(=O)c1ccc2c(C3CCCCC3)c3n(c2c1)CC(C(=O)N(C)CC1CCCN(C)C1)=Cc1ccccc1-3 (stereo not shown)
HCV NS5B; Table 1, read-out: IC50*
  IC50: 10 to 1000 nM
HCV replicon; [1]
  EC50: 1000 to 10000 nM

## COC(=O)c1ccc2c(C3CCCCC3)c3n(c2c1)CC(C(=O)Nc1nccs1)=Cc1ccccc1-3
HCV replicon; [1]
  EC50: 1000 to 10000 nM

## COC(=O)c1ccc2c(C3CCCCC3)c3n(c2c1)CC(C(=O)N1CCC(N2C(=O)Cc4ccccc42)CC1)=Cc1ccccc1-3
HCV replicon; [1]
  EC50: 1000 to 10000 nM

## COC(=O)c1ccc2c(C3CCCCC3)c3n(c2c1)CC(C(=O)N1CCC(NC(C)=O)CC1)=Cc1ccccc1-3
HCV replicon; [1]
  EC50: 1000 to 10000 nM

## O=C(O)c1ccc2c(C3CCCCC3)c3n(c2c1)CC(C(=O)N1CCC2(CC1)OCCO2)=Cc1ccccc1-3
HCV NS5B; IC50*, Table 1
  IC50: 10 to 1000 nM
HCV replicon
  EC50: 70 to 1000 nM

## CN(C)S(=O)(=O)NC(=O)c1ccc2c(C3CCCCC3)c3n(c2c1)CC(C(=O)N1CCC2(CC1)OCCO2)=Cc1ccccc1-3
HCV NS5B; IC50*, Table 1
  IC50: 10 to 1000 nM
HCV replicon
  EC50: 70 to 1000 nM

## COC(=O)c1ccc2c(C3CCCCC3)c3n(c2c1)CC(C(=O)N1CCC(N2CCOCC2)CC1)=Cc1ccc(Cl)cc1-3
HCV replicon; [1]
  EC50: 1000 to 10000 nM

## CN(C)S(=O)(=O)NC(=O)c1ccc2c(C3CCCCC3)c3n(c2c1)CC(C(=O)N1CCC(=O)CC1)=Cc1ccccc1-3
HCV NS5B; IC50*, Table 1
  IC50: 10 to 1000 nM
HCV replicon
  EC50: 70 to 1000 nM

## COC(=O)c1ccc2c(C3CCCCC3)c3n(c2c1)CC(C(=O)N1CC[C@@H](F)C1)=Cc1ccccc1-3
HCV replicon; [1]
  EC50: > 370 nM

## COC(=O)c1ccc2c(C3CCCCC3)c3n(c2c1)C/C(=N/O)Cc1ccccc1-3
HCV replicon; [1]
  EC50: > 10000 nM

## O=C(NCc1cnn[nH]1)c1ccc2c(C3CCCCC3)c3n(c2c1)CC(C(=O)N1CCC(N2CCOCC2)CC1)=Cc1ccccc1-3 [drawing 204]
HCV NS5B; Table 1, read-out: IC50*
  IC50: 10 to 1000 nM

## COc1ccc2c(c1)C[C@@H](C(=O)N1CCC[C@H](OC(C)=O)C1)Cn1c-2c(C2CCCCC2)c2ccc(C(=O)NS(=O)(=O)N(C)C)cc21 [drawing 320]
HCV NS5B; Table 1a, read-out: IC50*
  IC50: 10 to 1000 nM

## COc1ccc2c(c1)C[C@@H](C(=O)N1CCC[C@H](OC(C)=O)C1)Cn1c-2c(C2CCCCC2)c2ccc(C(=O)NS(=O)(=O)N(C)C)cc21 [drawing 326]
HCV NS5B; Table 1a, read-out: IC50*
  IC50: 10 to 1000 nM
